Measurements taken from the METLIN SMRT retention time set (Domingo-Almenara et al. 2019).

Assay: gradient 5% acetonitrile 3 min, to 50% in 2 min, to 85% in 15 min, held 3 min, 100 µL/min
Conditions: column: Zorbax Extend-C18 2.1 x 50 mm; eluents: water / acetonitrile, 0.1% formic acid
Outline: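 Standards, all pure, were combined into mixtures of ~100 molecules and run at 100 μL/min on a Zorbax Extend-C18 column (2.1 × 50 mm, 1.8 μm) with water and acetonitrile, each containing 0.1% formic acid. A coupled quadrupole time-of-flight mass spectrometer operated in positive and negative ionization mode. Retention time values come from computationally picked adduct peaks, each inspected manually.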

Compound | RP-LC retention time
COC(=O)c1sccc1S(=O)(=O)N1CCC(C(N)=O)(N2CCCCC2)CC1 | 580 s
Cc1noc(C)c1-c1ccc(S(=O)(=O)Nc2ccc(Cl)cc2)cc1 | 1000 s
CCOc1ccc(-c2nc(-c3ccc4nnn(CC)c4c3)no2)cc1 | 1140 s
Cc1ccc(S(=O)(=O)N2CCC3(CC2)NCCN=C3NCc2ccccc2F)c(C)c1 | 747 s
CCOc1ccccc1-c1noc(-c2nnn(Cc3nc(-c4ccccc4OC)oc3C)c2C)n1 | 1070 s
Cn1c(SCC(=O)c2ccc(F)cc2)nnc1-c1ccncc1 | 620 s
CCn1cc(-c2ccncc2)cc1C(=O)NCc1ccc(Br)cc1 | 698 s
CCCNCc1ccc(-c2ccccc2)o1 | 641 s
Cc1ccccc1N1OC2C(=O)N(c3ccc(F)cc3)C(=O)C2C1c1ccncc1 (configuration not stated) | 671 s
CCCCS(=O)(=O)N1CCc2nc(-c3ccc(OC)cc3)ncc2C1 | 983 s
COc1ccc(OC)c(S(=O)(=O)N2CCc3nc[nH]c3C2)c1 | 554 s
Cc1noc(-c2cccn2Cc2cccc(Cl)c2)n1 | 1110 s
N#Cc1ccsc1NC(=O)CCSc1ccccc1 | 879 s
O=C(NC1CC1)c1cn(CCC2CCCCN2C(=O)C2CC2)nn1 (configuration not stated) | 636 s
COc1ccc(N2CCn3c(SCC(=O)Nc4ccccc4C(F)(F)F)nnc32)cc1 | 726 s
CC(C)n1c(=O)sc2cc(S(=O)(=O)N3CCC(C(=O)N4CCCC4)CC3)ccc21 | 809 s
O=C(c1ccn[nH]1)N1CCC[C@H]1c1nc(C2CCOCC2)n[nH]1 | 558 s
CCc1ccc2[nH]c3c(c(=O)c2c1)CN(CC(=O)NCc1ccc(SC)cc1)CC3 | 889 s
CCC(C(=O)N1CCN(c2cc(-c3ccccc3)ncn2)CC1)c1ccccc1 (configuration not stated) | 649 s

Compound | RP-LC retention time
O=C(NCCc1csc(C2CCCN(C(=O)C3CCCCC3)C2)n1)C1CC1 (configuration not stated) | 760 s
O=C(NCc1ccc2c(c1)OCO2)C1CCCN(c2ccc(N3CCOCC3)nn2)C1 (configuration not stated) | 609 s
CCCOc1nc2ccccc2nc1N1CCCC(C(=O)NCc2ccccc2)C1 (configuration not stated) | 1180 s
Cc1nnsc1C(=O)Nc1ccc(-n2nc(C(F)(F)F)cc2C(F)(F)F)cc1 | 758 s
COc1ccc(NC(=O)C2CCN(S(=O)(=O)c3cc(-c4noc(C)n4)cs3)CC2)cc1Cl | 946 s
Cc1cccc(-n2c(=O)c3sccc3n(Cc3nc(-c4ccc(F)c(Cl)c4)no3)c2=O)c1 | 1100 s
COc1cc(=O)n(-c2ccccc2C)nc1C(=O)Nc1ccc(OC(F)(F)F)cc1 | 880 s
COc1ccc(NC(=O)C2CCC(=O)N2S(=O)(=O)c2ccc(C)c(C)c2)cc1Cl (configuration not stated) | 956 s
CC(C)CNC(=O)C1CCN(c2nc3ccsc3c(=O)n2Cc2ccc(F)cc2)CC1 | 884 s
O=C(CCc1c(-c2ccccc2)nc2ccccn12)Nc1ccc(Br)cc1F | 722 s
O=C(NCc1ccco1)c1ccc2ccnc(N3CCN(c4ccc(Cl)cc4)CC3)c2c1 | 858 s
O=C(OCc1ccncc1)c1cn(-c2cccc(Cl)c2)c(=O)c2ccccc12 | 770 s
Cc1ccc2c(c1)N(Cc1ccccc1)N=C(C(=O)N1CCOCC1)S2(=O)=O | 832 s
CCOC(=O)N1CCN(c2ncc(C(=O)NCc3ccccc3)c(N)n2)CC1 | 656 s
CCCCS(=O)(=O)c1cc2c(cc1NC(=O)c1c(F)cccc1F)n(C)c(=O)n2C | 800 s
COc1ccc2nc(C(=O)NCc3ccccc3Br)cn2n1 | 891 s
Cc1ccc(C(=O)NCC(=O)Nc2cc(-c3nc(C)cs3)sc2C)cc1 | 814 s
O=C1CC(CNS(=O)(=O)c2cccnc2)CN1c1ccc(Cl)cc1 (configuration not stated) | 694 s
